Entries after “also recorded” stand apart in the source; their conditions may differ.
What was measured:
CD19 CAR-bearing T cells = experiment: Live cell confocal microscopy of lytic granule positioning (LysoTracker Red); type: cell-based; conditions: for stimulation-induced lytic granule convergence: ciliobrevin D 50 μM vs DMSO, straight out of culture or 0.5 h post cytokine (IL-7, IL-15) re-addition
Experimental: (§1) FIG. 17. […] Live cell confocal microscopy of CD19 CAR-bearing T cells untreated or treated with ciliobrevin D (30 and 100 μM). Lytic granule positioning was tracked using LysoTracker Red. […] Quantitative analyses of lytic granule distance from the MTOC are shown as a feature of the degree of granule convergence in CD19 CAR-bearing T cells.
as §1, with “18.” for “17.”, “cells” for “cells untreated or”, “with DMSO or” for “with”, “(50” for “(30 and 100”, “Red. […] The culture medium for CD19 CAR T cells contains IL-7 and IL-15.” for “Red.”
(§2) Specifically, the inventors have shown convergence in CD19 CAR T cells, CD19 CAR NK cells, PSCA CAR T cells, GD2 CAR NKT cells, HER2 CART cells, and glypican CAR T cells (FIG. 15A). Using a measurement of mean granule distance from the MTOC, CAR cells have varying degrees of converged lytic granules (FIG. 15B).

GD2 CAR-bearing T cells = experiment: as above; type: cell-based; conditions: ciliobrevin D 50 μM vs DMSO, straight out of culture or 0.5 h post cytokine (IL-7, IL-15) re-addition
Experimental: as §1, with “20.” for “17.”, “GD2” for “CD19”, “cells” for “cells untreated or”, “with DMSO or” for “with”, “(50” for “(30 and 100”, “Red. […] The culture medium for GD2 CAR T cells contains IL-7 and IL-15.” for “Red.”
as §2

CD19 CAR NK cells = experiment: Standard 4-hour 51Cr cytotoxicity assay, bystander killing; type: cell-based; conditions: for more bystander cells lysed compared to DMSO: wildtype Daoy bystanders, Daoy-CD19 inciting targets
Experimental: FIG. 22. Bystander killing with increasing amounts of ciliobrevin D in the presence of CD19 CAR-bearing NK cells. Standard 4-hour ^51Cr cytotoxicity assay of CD19 CAR NK cells treated with ciliobrevin D (12.5, 25, and 50 μM) or DMSO control. Daoy-CD19 cells were used as inciting target cells to activate CD19 CAR-bearing NK cells. Wildtype Daoy cells were used as innocent bystander cells to measure the degree of collateral damage caused by non-directional degranulation.
Similarly, compared to DMSO, ciliobrevin D-treated CD19 CAR NK cells lyse approximately 24%, 39% and 40% more bystander cells at the concentration of 12.5, 25 and 50 μM, respectively (FIG. 22). […] FIG. 23 and FIG. 24 are time-lapse images of videos of control ([…]) and ciliobrevin D-treated ([…]) CD19 CAR T cells. […] In the control group, however, lytic granules converge immediately upon interacting with the target cell and remain tightly clustered until target is killed by the CD19 CAR T cell as indicated by uptake of the SYTOX Blue viability dye.

[1] = test system: CD19 CAR-bearing NK cells; experiment: Live cell confocal microscopy of lytic granule positioning (LysoTracker Red); type: cell-based; conditions: ciliobrevin D 50 μM vs DMSO, straight out of culture or 0.5 h post cytokine (IL-2) re-addition
Experimental: FIG. 19. […] Live cell confocal microscopy of CD19 CAR-bearing NK cells treated with DMSO or ciliobrevin D (50 μM). Lytic granule positioning was tracked using LysoTracker Red. […] The culture medium for CD19 CAR NK cells contains IL-2. […] Quantitative analyses of lytic granule distance from the MTOC are shown as a feature of the degree of granule convergence in […].
as §2

eNK cells = experiment: Flow cytometry-based cytotoxicity / bystander killing assay; type: cell-based, human
Experimental: (§3) Because directed degranulation with converged granules promoted killing efficiency, ciliobrevin D was used to physically prevent convergence in a cell that had received a convergence signal. It was considered that this would allow us to abrogate the killing efficiency benefit imparted by lytic granule convergence. In order to measure killing of both the target and bystander cells in a single experiment, flow cytometry-based cytotoxicity assays were performed, wherein each cell line was labeled with a unique fluorescent dye in the presence of media containing SYTOX Blue viability indicator dye. […] The viability of YTS ([…]), NK92 (FIG. 14E, 14H) and eNK (FIG. 14F, 14I) was not affected by DMSO or ciliobrevin D treatments. […] To ask if it promoted more collateral damage by NK cells 51Cr-labeled Raji cells were added (to serve as innocent bystanders) along with unlabeled 721.221 or K562 target cells. […] YTS or NK92 cells co-cultured with 51Cr-labeled Raji cells in the absence of 721.221 or K562 were unable to kill Raji cells (FIG. 14J). […] Convergence therefore serves to protect innocent bystander cells in complex cellular environments.
(§4) YTS-CD16, NK92-CD16 and eNK cells were labeled with CellTrace CFSE for 10 min at room temperature, washed, and treated with ciliobrevin D or DMSO control as described below in inhibitors. 721.221 and K562 cells were labeled with cell proliferation dye eFluor 670 for 5 min at room temperature. Raji cells were labeled with PKH-26 according to manufacture's protocol. NK cells were then mixed with the corresponding targets and Raji cells at a final volume of 200 μl complete R10 and incubated at 37° C. for 2 hr. Cells were then labeled with SYTOX Blue viability dye for 5 min at room temperature, washed, and run on LSRFortessa flow cytometer (BD).
(§5) Where applicable, YTS, NK92 and eNK cells were pretreated with […] ciliobrevin D (Millipore) for 30 min then washed. DMSO was used as the vehicle control for all inhibitor experiments. The inhibitor was also added into the co-culture with target cells.

NK92 cells = experiment: as above; type: cell-based, human
Experimental: as §3, §4, §5

YTS cells = experiment: as above; type: cell-based, human
Experimental: as §3, §4, §5

N#CC(C(=O)c1ccc(Cl)cc1Cl)=C1NC(=O)c2ccc(Cl)cc2N1 [ciliobrevin D, 2-(7-chloro-4-oxo-3,4-dihydroquinazolin-2(1H)-ylidene)-3-(2,4-dichlorophenyl)-3-oxopropanenitrile]
stimulation-induced lytic granule convergence (CD19 CAR-bearing T cells): blocks stimulation-induced convergence
stimulation-induced lytic granule convergence (CD19 CAR-bearing T cells; listed as Ciliobrevin D): dispersed lytic granules
lytic granule positioning (granule distance from the MTOC) (CD19 CAR-bearing T cells; ciliobrevin D 30 and 100 μM vs untreated): can disperse lytic granules; also recorded: dispersed lytic granules
stimulation-induced lytic granule convergence (GD2 CAR-bearing T cells): blocks stimulation-induced convergence
stimulation-induced lytic granule convergence (GD2 CAR-bearing T cells; listed as Ciliobrevin D): dispersed lytic granules
more bystander cells lysed compared to DMSO (CD19 CAR NK cells; 12.5 μM): approximately 24%
more bystander cells lysed compared to DMSO (CD19 CAR NK cells; 25 μM): ~39%
more bystander cells lysed compared to DMSO (CD19 CAR NK cells; 50 μM): ~40%
non-specific lysis of Daoy cells (CD19 CAR NK cells; 12.5, 25 and 50 μM vs DMSO): dose-dependent increases
stimulation-induced lytic granule convergence [1]: blocks stimulation-induced convergence
stimulation-induced lytic granule convergence ([1]; listed as Ciliobrevin D): dispersed lytic granules
specific lysis of susceptible target cells (eNK cells; eNK against K562, Raji bystander cells added, vs DMSO): no change in killing; also recorded: not affected
killing of susceptible target cells (eNK cells; eNK against K562, absence of Raji bystander cells, vs DMSO): did not affect killing; also recorded: not affected
non-specific lysis (bystander killing) of Raji cells (eNK cells; eNK with K562 inciting targets, vs DMSO): killing of the bystander Raji cells in a dose-dependent manner; also recorded: increased
viability of NK cells (eNK cells; eNK, standard cytotoxicity and bystander killing assays): not affected; also recorded: not different
viability of NK cells (NK92 cells; NK92, standard cytotoxicity and bystander killing assays): not affected; also recorded: not different
specific lysis of susceptible target cells (NK92 cells; NK92 against K562, Raji bystander cells added, vs DMSO): no change in killing; also recorded: not affected
killing of susceptible target cells (NK92 cells; NK92 against K562, absence of Raji bystander cells, vs DMSO): did not affect killing; also recorded: not affected
non-specific lysis (bystander killing) of Raji cells (NK92 cells; NK92 with K562 inciting targets, vs DMSO): killing of the bystander Raji cells in a dose-dependent manner; also recorded: increased
specific lysis of susceptible target cells (YTS cells; YTS against 721.221, Raji bystander cells added, vs DMSO): no change in killing; also recorded: not affected
killing of susceptible target cells (YTS cells; YTS against 721.221, absence of Raji bystander cells, vs DMSO): did not affect killing; also recorded: not affected
non-specific lysis (bystander killing) of Raji cells (YTS cells; YTS with 721.221 inciting targets, vs DMSO): killing of the bystander Raji cells in a dose-dependent manner; also recorded: increased
viability of NK cells (YTS cells; YTS, standard cytotoxicity and bystander killing assays): not affected; also recorded: not different

Reference: US20200016200A1, “MODULATING CYTOTOXIC CELL LYTIC GRANULE POSITIONING TO PROMOTE DIFFUSE KILLING IN CELLULAR THERAPIES” (Baylor College of Medicine, priority 2016, published 2020)
